Here are results for seven compounds from US20050282743A1, “Molecular interactions in cells” (Arbor Vita Corporation, priority 2001, published 2005).

Ends that are not written are not given here. Peptide text beside a SMILES is read from it. * marks the point of attachment. Biotin = O=C1N[C@H]2[C@H](CS[C@H]2CCCCC(=O)*)N1

Holding throughout (experiment): G' assay (10 uM PL peptide), results of TABLE 7 and TABLE 12
What all share (type): binding

Assay [1] deals with T1, PDZ protein (GST-PDZ fusion) (Homo sapiens, UniProt P57105).
T1 construct: made in house; host or cells: E. coli (DH5alpha, BL21 or JM109)
T1 sequence (P57105 1-145): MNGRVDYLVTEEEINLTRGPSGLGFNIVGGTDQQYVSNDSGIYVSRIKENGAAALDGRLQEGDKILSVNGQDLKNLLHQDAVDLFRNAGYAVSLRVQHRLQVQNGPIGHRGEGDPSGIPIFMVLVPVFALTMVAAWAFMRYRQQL
Conditions: PDZ Outer Membrane, PDZ Domain 1. The method in brief:
(§1)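 Binding classes derive from A450 nm of bound biotin-tagged PL peptide. A score of 5 needs A450 above 4 in more than two repeats.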

Assay [2] addresses T2, PDZ protein (GST-PDZ fusion) (Homo sapiens, UniProt Q5TCQ9).
T2 construct: made in house; host or cells: E. coli (DH5alpha, BL21 or JM109)
T2 sequence (Q5TCQ9 1-1481): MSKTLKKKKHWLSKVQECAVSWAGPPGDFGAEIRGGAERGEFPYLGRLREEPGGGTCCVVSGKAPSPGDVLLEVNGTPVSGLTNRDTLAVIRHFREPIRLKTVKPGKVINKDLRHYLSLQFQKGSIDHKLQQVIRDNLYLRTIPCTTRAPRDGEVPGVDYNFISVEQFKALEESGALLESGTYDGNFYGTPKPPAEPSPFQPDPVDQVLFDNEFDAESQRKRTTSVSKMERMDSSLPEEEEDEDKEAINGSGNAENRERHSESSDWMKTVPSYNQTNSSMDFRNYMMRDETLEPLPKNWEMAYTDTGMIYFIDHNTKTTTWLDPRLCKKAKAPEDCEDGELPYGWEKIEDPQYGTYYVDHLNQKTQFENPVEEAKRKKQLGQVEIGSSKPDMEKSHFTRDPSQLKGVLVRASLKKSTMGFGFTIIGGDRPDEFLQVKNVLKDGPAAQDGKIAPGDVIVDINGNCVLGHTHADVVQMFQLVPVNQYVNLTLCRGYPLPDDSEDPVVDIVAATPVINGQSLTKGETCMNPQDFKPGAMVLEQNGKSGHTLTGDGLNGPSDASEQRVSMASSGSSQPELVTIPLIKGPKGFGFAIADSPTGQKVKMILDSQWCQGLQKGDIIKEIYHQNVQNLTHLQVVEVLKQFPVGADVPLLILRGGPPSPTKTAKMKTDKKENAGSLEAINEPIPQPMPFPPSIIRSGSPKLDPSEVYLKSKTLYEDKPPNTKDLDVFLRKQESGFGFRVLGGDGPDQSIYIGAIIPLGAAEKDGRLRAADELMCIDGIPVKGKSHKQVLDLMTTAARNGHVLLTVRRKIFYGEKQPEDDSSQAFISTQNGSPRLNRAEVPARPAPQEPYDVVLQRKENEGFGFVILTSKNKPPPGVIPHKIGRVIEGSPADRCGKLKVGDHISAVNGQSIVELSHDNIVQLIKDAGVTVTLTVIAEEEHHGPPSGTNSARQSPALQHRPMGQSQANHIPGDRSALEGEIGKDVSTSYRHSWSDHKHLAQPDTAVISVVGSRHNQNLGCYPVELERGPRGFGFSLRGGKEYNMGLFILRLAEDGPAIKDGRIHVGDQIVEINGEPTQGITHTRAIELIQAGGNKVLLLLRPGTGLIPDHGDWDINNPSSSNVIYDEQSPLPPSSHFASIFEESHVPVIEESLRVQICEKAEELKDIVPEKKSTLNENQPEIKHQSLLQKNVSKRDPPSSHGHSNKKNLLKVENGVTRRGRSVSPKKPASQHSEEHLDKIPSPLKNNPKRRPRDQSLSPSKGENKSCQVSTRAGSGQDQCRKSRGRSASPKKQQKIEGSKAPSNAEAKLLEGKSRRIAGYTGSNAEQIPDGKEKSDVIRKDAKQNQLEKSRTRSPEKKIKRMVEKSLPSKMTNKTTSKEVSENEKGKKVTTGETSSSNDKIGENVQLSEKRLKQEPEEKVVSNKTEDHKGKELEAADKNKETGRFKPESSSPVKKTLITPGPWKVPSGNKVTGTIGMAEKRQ
In outline:
as §1

The target in assay [3] is T3, PDZ protein (GST-PDZ fusion) (Homo sapiens, UniProt Q6P0Q8).
T3 construct: made in house; host or cells: E. coli (DH5alpha, BL21 or JM109)
T3 sequence (Q6P0Q8 whole entry, the tested form may be a part): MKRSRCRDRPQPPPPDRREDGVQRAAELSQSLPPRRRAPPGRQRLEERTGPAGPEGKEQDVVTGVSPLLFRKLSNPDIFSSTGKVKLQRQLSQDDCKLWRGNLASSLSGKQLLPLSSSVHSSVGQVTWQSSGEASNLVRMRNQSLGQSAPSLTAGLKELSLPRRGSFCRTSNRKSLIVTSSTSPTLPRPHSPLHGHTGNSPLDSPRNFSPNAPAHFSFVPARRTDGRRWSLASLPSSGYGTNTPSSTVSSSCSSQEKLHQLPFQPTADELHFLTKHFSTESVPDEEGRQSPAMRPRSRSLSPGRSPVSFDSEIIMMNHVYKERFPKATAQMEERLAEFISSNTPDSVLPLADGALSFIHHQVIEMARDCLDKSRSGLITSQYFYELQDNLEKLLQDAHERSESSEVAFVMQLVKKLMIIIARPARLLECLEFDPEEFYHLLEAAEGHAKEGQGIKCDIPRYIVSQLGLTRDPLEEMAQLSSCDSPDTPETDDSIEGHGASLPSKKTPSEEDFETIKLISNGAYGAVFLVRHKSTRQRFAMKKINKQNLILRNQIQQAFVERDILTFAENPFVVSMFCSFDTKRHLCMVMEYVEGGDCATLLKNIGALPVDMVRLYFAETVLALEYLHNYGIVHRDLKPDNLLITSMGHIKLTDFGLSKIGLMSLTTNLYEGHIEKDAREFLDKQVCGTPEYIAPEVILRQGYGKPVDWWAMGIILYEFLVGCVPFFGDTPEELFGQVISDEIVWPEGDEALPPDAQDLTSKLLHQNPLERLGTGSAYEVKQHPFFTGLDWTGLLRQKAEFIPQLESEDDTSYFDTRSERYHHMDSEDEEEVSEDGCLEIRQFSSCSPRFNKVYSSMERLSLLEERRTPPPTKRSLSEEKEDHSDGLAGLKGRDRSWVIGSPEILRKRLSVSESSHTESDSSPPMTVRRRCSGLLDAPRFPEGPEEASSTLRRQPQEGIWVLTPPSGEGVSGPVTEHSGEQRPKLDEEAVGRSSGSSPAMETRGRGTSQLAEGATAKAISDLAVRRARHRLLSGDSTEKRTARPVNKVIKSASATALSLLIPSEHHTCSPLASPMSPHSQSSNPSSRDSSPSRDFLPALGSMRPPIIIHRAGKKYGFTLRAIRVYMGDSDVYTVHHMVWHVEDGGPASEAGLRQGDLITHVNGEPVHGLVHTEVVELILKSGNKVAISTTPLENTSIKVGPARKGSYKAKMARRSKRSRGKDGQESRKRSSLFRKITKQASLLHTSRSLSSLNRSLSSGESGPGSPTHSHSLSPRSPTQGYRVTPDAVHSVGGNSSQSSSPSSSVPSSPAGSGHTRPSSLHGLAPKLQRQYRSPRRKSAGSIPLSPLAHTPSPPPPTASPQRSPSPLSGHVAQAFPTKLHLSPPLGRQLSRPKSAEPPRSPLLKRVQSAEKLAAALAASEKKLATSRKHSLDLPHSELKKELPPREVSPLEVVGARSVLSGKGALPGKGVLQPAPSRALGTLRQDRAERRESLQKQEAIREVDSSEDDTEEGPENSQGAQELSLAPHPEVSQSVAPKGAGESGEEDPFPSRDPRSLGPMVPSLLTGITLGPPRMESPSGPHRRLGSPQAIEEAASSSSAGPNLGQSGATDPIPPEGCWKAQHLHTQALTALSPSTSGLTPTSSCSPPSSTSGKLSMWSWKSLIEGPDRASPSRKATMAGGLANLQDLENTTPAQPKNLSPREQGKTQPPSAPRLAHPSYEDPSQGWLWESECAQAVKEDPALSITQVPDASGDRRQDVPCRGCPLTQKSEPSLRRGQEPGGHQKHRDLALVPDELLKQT
The method in brief: as §1

Assay [4] concerns PDZ protein (GST-PDZ fusion). The method in brief: as §1
Assay [5] concerns the target T4, PDZ protein (GST-PDZ fusion) (Homo sapiens, UniProt Q12923).
T4 construct: made in house; host or cells: E. coli (DH5alpha, BL21 or JM109)
In outline:
as §1

T4 sequence (Q12923 whole entry, the tested form may be a part): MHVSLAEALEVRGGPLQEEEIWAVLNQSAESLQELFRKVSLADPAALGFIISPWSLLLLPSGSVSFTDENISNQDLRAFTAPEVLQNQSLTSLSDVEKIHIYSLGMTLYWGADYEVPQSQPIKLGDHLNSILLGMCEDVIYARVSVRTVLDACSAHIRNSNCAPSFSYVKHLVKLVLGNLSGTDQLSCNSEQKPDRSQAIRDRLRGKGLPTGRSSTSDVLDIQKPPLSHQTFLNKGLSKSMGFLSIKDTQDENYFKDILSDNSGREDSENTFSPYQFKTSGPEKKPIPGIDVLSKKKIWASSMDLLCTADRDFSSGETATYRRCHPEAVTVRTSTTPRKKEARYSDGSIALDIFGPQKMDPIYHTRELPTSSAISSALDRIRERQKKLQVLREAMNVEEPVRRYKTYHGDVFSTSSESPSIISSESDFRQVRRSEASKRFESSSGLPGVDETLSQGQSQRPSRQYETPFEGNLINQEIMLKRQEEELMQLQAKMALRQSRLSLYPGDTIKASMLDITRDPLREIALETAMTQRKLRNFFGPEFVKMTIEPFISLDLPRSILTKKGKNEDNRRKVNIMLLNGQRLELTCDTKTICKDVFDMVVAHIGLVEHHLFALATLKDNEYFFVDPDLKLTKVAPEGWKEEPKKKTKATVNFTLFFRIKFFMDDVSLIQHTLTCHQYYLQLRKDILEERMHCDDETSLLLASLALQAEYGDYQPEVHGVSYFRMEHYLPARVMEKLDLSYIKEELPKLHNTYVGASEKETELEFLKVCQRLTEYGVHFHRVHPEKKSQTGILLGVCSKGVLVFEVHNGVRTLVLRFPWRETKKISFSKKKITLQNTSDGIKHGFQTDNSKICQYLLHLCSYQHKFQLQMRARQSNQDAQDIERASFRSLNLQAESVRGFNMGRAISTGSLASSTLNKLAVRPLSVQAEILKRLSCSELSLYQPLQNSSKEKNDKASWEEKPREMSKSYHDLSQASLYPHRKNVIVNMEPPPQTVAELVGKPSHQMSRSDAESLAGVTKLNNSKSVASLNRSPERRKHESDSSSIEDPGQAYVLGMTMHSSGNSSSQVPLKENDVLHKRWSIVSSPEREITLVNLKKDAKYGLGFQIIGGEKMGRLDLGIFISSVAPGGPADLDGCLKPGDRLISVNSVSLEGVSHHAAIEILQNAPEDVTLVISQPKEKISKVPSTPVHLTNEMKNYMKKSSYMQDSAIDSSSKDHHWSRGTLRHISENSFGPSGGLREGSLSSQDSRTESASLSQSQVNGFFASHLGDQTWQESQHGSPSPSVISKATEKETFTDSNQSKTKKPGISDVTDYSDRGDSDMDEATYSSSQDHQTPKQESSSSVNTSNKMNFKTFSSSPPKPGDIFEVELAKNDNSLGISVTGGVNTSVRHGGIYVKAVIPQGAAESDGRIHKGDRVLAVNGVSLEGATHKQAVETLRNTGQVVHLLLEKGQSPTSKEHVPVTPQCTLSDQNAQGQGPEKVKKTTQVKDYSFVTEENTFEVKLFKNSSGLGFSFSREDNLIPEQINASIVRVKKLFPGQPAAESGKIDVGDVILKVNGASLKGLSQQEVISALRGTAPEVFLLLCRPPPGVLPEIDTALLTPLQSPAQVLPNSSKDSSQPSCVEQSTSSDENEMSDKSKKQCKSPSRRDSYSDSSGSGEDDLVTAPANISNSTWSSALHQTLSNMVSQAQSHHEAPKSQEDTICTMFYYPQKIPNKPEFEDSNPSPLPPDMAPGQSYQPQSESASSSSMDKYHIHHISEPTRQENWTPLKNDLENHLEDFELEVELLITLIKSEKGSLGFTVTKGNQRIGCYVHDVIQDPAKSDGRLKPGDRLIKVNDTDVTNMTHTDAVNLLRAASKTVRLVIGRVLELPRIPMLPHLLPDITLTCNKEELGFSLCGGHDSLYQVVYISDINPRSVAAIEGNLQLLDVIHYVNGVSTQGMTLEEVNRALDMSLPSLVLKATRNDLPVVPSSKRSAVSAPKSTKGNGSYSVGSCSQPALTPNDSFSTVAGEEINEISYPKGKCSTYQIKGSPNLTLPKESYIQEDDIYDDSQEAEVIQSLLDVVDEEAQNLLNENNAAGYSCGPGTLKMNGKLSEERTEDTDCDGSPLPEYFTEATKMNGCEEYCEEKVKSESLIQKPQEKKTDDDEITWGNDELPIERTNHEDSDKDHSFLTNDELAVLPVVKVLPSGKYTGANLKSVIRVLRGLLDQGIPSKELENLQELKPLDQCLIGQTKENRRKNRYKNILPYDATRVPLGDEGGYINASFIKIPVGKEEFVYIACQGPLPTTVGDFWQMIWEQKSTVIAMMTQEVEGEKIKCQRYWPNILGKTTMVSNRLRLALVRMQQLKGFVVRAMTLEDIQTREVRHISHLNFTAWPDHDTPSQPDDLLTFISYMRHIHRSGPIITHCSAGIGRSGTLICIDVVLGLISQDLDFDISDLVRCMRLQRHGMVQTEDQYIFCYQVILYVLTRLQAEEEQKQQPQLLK

Turning to `CC(C)C[C@H](NC(=O)[C@H](CCCNC(=N)N)NC(=O)CNC(=O)CNC(=O)[C@H](CCCNC(=N)N)NC(=O)[C@H](C)NC(=O)[C@@H]1CCCN1C(=O)[C@H](CCCNC(=N)N)NC(=O)CNC(=O)CNC(=O)[C@@H](NC(=O)[C@H](C)NC(=O)CCCC[C@@H]1SC[C@@H]2NC(=O)N[C@@H]21)C(C)C)C(=O)N[C@@H](CCC(N)=O)C(=O)NCC(=O)N[C@@H](CCCNC(=N)N)C(=O)N[C@@H](CCCNC(=N)N)C(=O)N[C@@H](CCC(N)=O)C(=O)N[C@H](C(=O)N[C@@H](CCC(N)=O)C(=O)N[C@H](C(=O)O)C(C)C)[C@@H](C)O` [HPV E6 58 (modified)] (Biotin-AVGGRPARGGRLQGRRQTQV-OH; C-terminus assumed), the Classification is listed as 5 (A450 nm of 4 more than 2× repeated) in assay [1]; 5 (A450 nm of 4 more than 2× repeated) in assay [2] (PDZ KIAA1634, PDZ Domain 1); 1 (A450 nm 0-1) in assay [2] (PDZ KIAA1634, PDZ Domain 2); 1 (A450 nm 0-1) in assay [2] (PDZ KIAA1634, PDZ Domain 5); 5 (A450 nm of 4 more than 2× repeated) in assay [3] (PDZ KIAA0807(S), PDZ Domain 1); 5 (A450 nm of 4 more than 2× repeated) in assay [4] (PDZ BAI-1, PDZ Domain 2). Besides, the Classification in assay [4] (PDZ BAI-1, PDZ Domain 3) was 2 (A450 nm 1-2); in assay [4] (PDZ BAI-1, PDZ Domain 4) it was 2 (A450 nm 1-2); in assay [4] (PDZ BAI-1, PDZ Domain 5) it was 2 (A450 nm 1-2).

In the case of “PPATPSPRLALPAHHNATRL (Biotin-PPATPSPRLALPAHHNATRL) [Na+/Pi cotransporter 2]”, the Classification is given as 1 (A450 nm 0-1) in assay [1]; 5 (A450 nm of 4 more than 2× repeated) in assay [3] (PDZ KIAA0807(S), PDZ Domain 1); 5 (A450 nm of 4 more than 2× repeated) in assay [3] (PDZ KIAA807, PDZ Domain not given); 5 (A450 nm of 4 more than 2× repeated) in assay [4] (PDZ SHANK, PDZ Domain 1).

In the case of `CC[C@H](C)[C@H](NC(=O)[C@H](CC(=O)O)NC(=O)[C@H](CCC(=O)O)NC(=O)[C@H](CCCNC(=N)N)NC(=O)[C@@H](NC(=O)CCCC[C@@H]1SC[C@@H]2NC(=O)N[C@@H]21)[C@@H](C)O)C(=O)N[C@@H](Cc1ccc(O)cc1)C(=O)N[C@H](C(=O)N[C@@H](CC(N)=O)C(=O)N[C@@H](Cc1ccc(O)cc1)C(=O)N1CCC[C@H]1C(=O)N[C@H](C(=O)N[C@@H](Cc1ccccc1)C(=O)N[C@@H](CO)C(=O)N[C@@H](CCCNC(=N)N)C(=O)N[C@@H](CCCNC(=N)N)C(=O)N1CCC[C@H]1C(=O)N[C@@H](CCCCN)C(=O)N[C@H](C(=O)N[C@@H](CCCNC(=N)N)C(=O)N[C@H](C(=O)O)C(C)C)[C@@H](C)O)[C@@H](C)O)C(C)C` [DNAM-1] (Biotin-TREDIYVNYPTFSRRPKTRV-OH; C-terminus assumed), the Classification in assay [1] is listed as 1 (A450 nm 0-1); in assay [2] (PDZ KIAA1634, PDZ Domain 1), 5 (A450 nm of 4 more than 2× repeated); in assay [3] (PDZ KIAA807) it was 3 (A450 nm 2-3); in assay [3] (PDZ KIAA0807(S), PDZ Domain 1), 3 (A450 nm 2-3); in assay [4] (PDZ BAI-1, PDZ Domain 2), 5 (A450 nm of 4 more than 2× repeated).

As to `CC[C@H](C)[C@H](NC(=O)[C@H](CO)NC(=O)[C@H](CCC(=O)O)NC(=O)[C@H](Cc1ccc(O)cc1)NC(=O)[C@H](CC(=O)O)NC(=O)[C@H](CC(N)=O)NC(=O)[C@H](CCC(=O)O)NC(=O)[C@H](CCCCN)NC(=O)CCCC[C@@H]1SC[C@@H]2NC(=O)N[C@@H]21)C(=O)N[C@@H](CO)C(=O)N[C@@H](CC(=O)O)C(=O)N[C@@H](CC(C)C)C(=O)N[C@@H](CCC(N)=O)C(=O)N[C@@H](CCC(N)=O)C(=O)NCC(=O)N[C@@H](CCCNC(=N)N)C(=O)N[C@@H](CC(=O)O)C(=O)N[C@H](C(=O)N[C@H](C(=O)N[C@@H](CCCNC(=N)N)C(=O)N[C@@H](CC(C)C)C(=O)O)[C@@H](C)O)[C@@H](C)CC` [PAG] (Biotin-KENDYESISDLQQGRDITRL-OH; C-terminus assumed), the Classification is 2 (A450 nm 1-2) in assay [1]; 3 (A450 nm 2-3) in assay [4] (PDZ FLJ 00011, PDZ Domain 1); 4 (A450 nm 3-4) in assay [4] (PDZ SHANK, PDZ Domain 1).

As to `CC[C@H](C)[C@H](NC(=O)[C@H](CCC(=O)O)NC(=O)[C@H](CO)NC(=O)[C@H](CCC(=O)O)NC(=O)[C@H](CCCNC(=N)N)NC(=O)[C@H](CCCNC(=N)N)NC(=O)[C@H](CC(C)C)NC(=O)[C@@H]1CCCN1C(=O)[C@H](CCCNC(=N)N)NC(=O)[C@@H]1CCCN1C(=O)[C@H](CCC(=O)O)NC(=O)[C@H](CC(C)C)NC(=O)[C@@H]1CCCN1C(=O)[C@@H](NC(=O)[C@H](CO)NC(=O)[C@H](C)NC(=O)[C@H](CCC(N)=O)NC(=O)[C@H](CC(N)=O)NC(=O)[C@H](Cc1c[nH]cn1)NC(=O)[C@H](CC(C)C)NC(=O)CCCC[C@@H]1SC[C@@H]2NC(=O)N[C@@H]21)C(C)C)C(=O)O` [Kir2.1 (inwardly rect. K+ channel)] (Biotin-LHNQASVPLEPRPLRRESEI-OH; C-terminus assumed), the Classification is 4 (A450 nm 3-4) in assay [1] and 1 (A450 nm 0-1) in assay [2] (PDZ KIAA1634, PDZ Domain 1).

As to `CC(C)C[C@H](NC(=O)[C@H](Cc1c[nH]c2ccccc12)NC(=O)[C@H](Cc1c[nH]cn1)NC(=O)[C@H](CCCNC(=N)N)NC(=O)[C@H](CC(C)C)NC(=O)[C@@H](NC(=O)[C@H](Cc1ccccc1)NC(=O)[C@H](CCC(N)=O)NC(=O)[C@H](CCCNC(=N)N)NC(=O)[C@@H](NC(=O)[C@H](CCC(=O)O)NC(=O)CNC(=O)[C@H](CCCNC(=N)N)NC(=O)[C@H](CC(=O)O)NC(=O)[C@@H](NC(=O)[C@H](CC(C)C)NC(=O)[C@H](CCC(=O)O)NC(=O)[C@H](CCCNC(=N)N)NC(=O)CCCC[C@@H]1SC[C@@H]2NC(=O)N[C@@H]21)C(C)C)C(C)C)[C@@H](C)O)C(=O)N[C@@H](CCCCN)C(=O)N[C@H](C(=O)O)C(C)C` [Dopamine transporter (Na+-dependent)] (Biotin-RELVDRGEVRQFTLRHWLKV-OH; C-terminus assumed), the Classification in assay [5] (PDZ PTPL-1, PDZ Domain 4) is given as 3 (A450 nm 2-3); in assay [2] (PDZ KIAA1634, PDZ Domain 1), 3 (A450 nm 2-3); in assay [3] (PDZ KIAA807), 4 (A450 nm 3-4); in assay [3] (PDZ KIAA0807(S), PDZ Domain 1) it was 4 (A450 nm 3-4); in assay [4] (PDZ HEMBA 1003117, PDZ Domain 1) it was 5 (A450 nm of 4 more than 2× repeated).

`CC(C)C[C@H](NC(=O)CNC(=O)[C@@H](NC(=O)[C@H](CO)NC(=O)[C@H](CC(N)=O)NC(=O)[C@H](Cc1ccccc1)NC(=O)CNC(=O)[C@H](C)NC(=O)[C@H](C)NC(=O)[C@H](Cc1ccccc1)NC(=O)[C@@H](NC(=O)CCCC[C@@H]1SC[C@@H]2NC(=O)N[C@@H]21)[C@@H](C)O)[C@@H](C)O)C(=O)N1CCC[C@H]1C(=O)N[C@@H](Cc1c[nH]cn1)C(=O)N[C@@H](CO)C(=O)N[C@H](C(=O)N[C@H](C(=O)N[C@@H](CCCNC(=N)N)C(=O)N[C@H](C(=O)O)C(C)C)[C@@H](C)O)[C@@H](C)O` [Neuroligin] (Biotin-TFAAGFNSTGLPHSTTRV-OH; C-terminus assumed): the Classification in assay [5] (PDZ PTPL-1, PDZ Domain 2) was 1 (A450 nm 0-1); in assay [5] (PDZ PTPL-1, PDZ Domain 4), 1 (A450 nm 0-1); in assay [2] (PDZ KIAA1634, PDZ Domain 1), 4 (A450 nm 3-4); in assay [2] (PDZ KIAA1634, PDZ Domain 2), 2 (A450 nm 1-2); in assay [3] (PDZ KIAA807) it was 3 (A450 nm 2-3); in assay [4] (PDZ SHANK, PDZ Domain 1), 2 (A450 nm 1-2).
